Converted amounts (≈) assume the structure as drawn. The source made the active and inactive calls. The calls are words filed in the database; no cut-off is given here.
Tests used:
MRC5 = test: Cytotoxicity against human MRC5 at 300 to 400 ug/ml using crystal violet staining; type: cell-based
[1] = test system: Mycobacterium tuberculosis; test: Antimicrobial activity against Mycobacterium tuberculosis H37Rv by Microplate Alamar blue assay; type: functional
[2] = target: T1, 3-dehydroquinate dehydratase (Helicobacter pylori (strain ATCC 700392 / 26695) (Campylobacterpylori)) (UniProt Q48255); test: Reversible inhibition of Helicobacter pylori DHQ2
T1 sequence (whole entry): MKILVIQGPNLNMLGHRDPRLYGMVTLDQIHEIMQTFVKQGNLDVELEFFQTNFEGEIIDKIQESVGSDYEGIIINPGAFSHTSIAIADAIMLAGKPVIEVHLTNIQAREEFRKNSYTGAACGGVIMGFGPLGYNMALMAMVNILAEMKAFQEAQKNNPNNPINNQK

[3] = target: T2, 3-dehydroquinate dehydratase (Helicobacter pylori (strain ATCC 700392 / 26695) (Campylobacterpylori), UniProt Q48255); test: Competitive inhibition of Helicobacter pylori DHQ2
T2 sequence (Q48255 whole entry): T1 sequence (whole entry)

[4] = target: T3, 3-dehydroquinate dehydratase (Mycobacterium tuberculosis) (UniProt P9WPX7); test: Reversible inhibition of Mycobacterium tuberculosis DHQ2
T3 sequence (whole entry): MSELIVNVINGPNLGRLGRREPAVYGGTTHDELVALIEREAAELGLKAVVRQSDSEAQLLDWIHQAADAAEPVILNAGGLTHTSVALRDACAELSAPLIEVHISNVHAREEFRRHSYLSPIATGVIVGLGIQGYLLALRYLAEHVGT

[5] = target: T4, 3-dehydroquinate dehydratase (Mycobacterium tuberculosis, UniProt P9WPX7); test: Competitive inhibition of Mycobacterium tuberculosis DHQ2
T4 sequence (P9WPX7 whole entry): T3 sequence (whole entry)

Row | Structure (SMILES) | Activity (MRC5) | MIC [1] [µg/mL] | inhibition [2] | Ki [3] [nM] | inhibition [4] | Ki [5] [nM]
1 | CCCOC(=O)[C@]1(O)C=C(OCc2cc3ccc(Cl)cc3s2)[C@@H](O)[C@H](O)C1 | Non-toxic | 40 (≈ 96.9 µM) | – | – | – | –
2 | O=C(O)[C@@]1(O)C[C@@H](O)[C@H](O)C(OCc2ccc3sccc3c2)=C1Cc1ccc2sccc2c1 | – | – | Active | 140 | Active | –
3 | O=C(O)[C@]1(O)C=C(c2cccs2)[C@@H](O)[C@H](O)C1 | – | – | – | – | – | 250
4 | Cc1ccc2sc(CC3=C(OCc4cccs4)[C@@H](O)[C@H](O)C[C@]3(O)C(=O)O)cc2c1 | – | – | Active | 279 | Active | 870
5 | O=C(O)[C@@]1(O)C[C@@H](O)[C@H](O)C(OCc2cc3ccccc3s2)=C1Cc1cc2ccccc2s1 | – | – | Active | 97 | Active | 40
6 | CCOC(=O)[C@@]1(O)C[C@@H](O)[C@H](O)C(OCc2cc3ccc(Cl)cc3s2)=C1Cc1cc2ccc(Cl)cc2s1 | Non-toxic | > 160 | – | – | – | –
7 | CCCOC(=O)[C@]1(O)C=C(OCc2cc3ccccc3s2)[C@@H](O)[C@H](O)C1 | Non-toxic | 5 (≈ 13.2 µM) | – | – | – | –
8 | O=C(O)[C@]1(O)C=C(OCc2ccc3ccccc3c2)[C@@H](O)[C@H](O)C1 | – | – | Active | 310 | Active | 35
9 | O=C(O)[C@]1(O)C=C(OCc2ccc3sccc3c2)[C@@H](O)[C@H](O)C1 | – | – | Active | – | Active | –
10 | O=C(O)[C@@]1(O)C[C@@H](O)[C@H](O)C(OCc2cc3ccc(Cl)cc3s2)=C1Cc1cc2ccc(Cl)cc2s1 | – | – | Active | 6700 | Active | 1100
11 | COC(=O)[C@@]1(O)C[C@@H](O)[C@H](O)C(OCc2cc3cc(C)ccc3s2)=C1Cc1cc2cc(C)ccc2s1 | Non-toxic | > 160 | – | – | – | –
12 | O=C(O)[C@@]1(O)C[C@@H](O)[C@H](O)C(OCc2cc3ccccc3s2)=C1Cc1cccs1 | – | – | Active | 280 | Active | –
13 | O=C(O)[C@]1(O)C=C(OCc2cccs2)[C@@H](O)[C@H](O)C1 | – | – | Active | – | Active | 235
14 | CCOC(=O)[C@@]1(O)C[C@@H](O)[C@H](O)C(OCc2ccc3sccc3c2)=C1Cc1ccc2sccc2c1 | Non-toxic | 160 (≈ 313 µM) | – | – | – | –
15 | CCOC(=O)[C@]1(O)C=C(OCc2cc3ccccc3s2)[C@@H](O)[C@H](O)C1 | Non-toxic | 40 (≈ 110 µM) | – | – | – | –
16 | O=C(O)[C@@]1(O)C[C@@H](O)[C@H](O)C(OCc2ccc3ccccc3c2)=C1Cc1ccc2ccccc2c1 | – | – | Active | 260 | Active | 6000
17 | CCCOC(=O)[C@]1(O)C=C(OCc2ccc3sccc3c2)[C@@H](OC(=O)CCC)[C@H](OC(=O)CCC)C1 | Non-toxic | 20 (≈ 38.6 µM) | – | – | – | –
18 | CCCC(=O)O[C@@H]1C(OCc2ccc3ccccc3c2)=C[C@@](O)(C(=O)OCC)C[C@H]1O | Non-toxic | 10 (≈ 23.3 µM) | – | – | – | –
19 | O=C(O)[C@]1(O)C=C(OCc2cc3ccc(Cl)cc3s2)[C@@H](O)[C@H](O)C1 | – | – | Active | 205 | Active | 35
20 | COC(=O)[C@]1(O)C=C(OCc2ccc3sccc3c2)[C@@H](O)[C@H](O)C1 | Non-toxic | > 160 | – | – | – | –

Row | Structure (SMILES) | Activity (MRC5) | MIC [1] [µg/mL] | inhibition [2] | Ki [3] [nM] | inhibition [4] | Ki [5] [nM]
21 | CCCOC(=O)[C@]1(O)C=C(OCc2ccc3ccccc3c2)[C@@H](O)[C@H](O)C1 | Non-toxic | 10 (≈ 26.9 µM) | – | – | – | –
22 | O=C(O)[C@]1(O)C=C(/C=C/COc2ccc(F)cc2)[C@@H](O)[C@H](O)C1 | – | – | – | – | – | 120
23 | CCCOC(=O)[C@]1(O)C=C(OCc2ccc3sccc3c2)[C@@H](OC(=O)CCC)[C@H](O)C1 | Non-toxic | 5 (≈ 11.1 µM) | – | – | – | –
24 | CCCC(=O)O[C@@H]1C(OCc2ccc3sccc3c2)=C[C@@](O)(C(=O)OCC)C[C@H]1OC(=O)CCC | Non-toxic | 5 (≈ 9.91 µM) | – | – | – | –
25 | C=CCC1=C(OCc2cc3ccccc3s2)[C@@H](O)[C@H](O)C[C@]1(O)C(=O)O | – | – | Active | – | Active | –
26 | CCOC(=O)[C@]1(O)C=C(OCc2ccc3sccc3c2)[C@@H](O)[C@H](O)C1 | Non-toxic | 40 (≈ 110 µM) | – | – | – | –
27 | Cc1ccc2sc(COC3=C(Cc4cc5cc(C)ccc5s4)[C@@](O)(C(=O)O)C[C@@H](O)[C@@H]3O)cc2c1 | – | – | Active | 50 | Active | –
28 | CCCC(=O)O[C@@H]1C(OCc2ccc3ccccc3c2)=C[C@@](O)(C(=O)OCC)C[C@H]1OC(=O)CCC | Non-toxic | 5 (≈ 10 µM) | – | – | – | –
29 | COC(=O)[C@]1(O)C=C(OCc2cc3ccccc3s2)[C@@H](O)[C@H](O)C1 | Non-toxic | > 160 | – | – | – | –
30 | O=C(O)[C@@]1(O)C[C@@H](O)[C@H](O)C(OCc2cccs2)=C1Cc1cccs1 | – | – | Active | 14600 | Active | 5100
31 | Cc1ccc2sc(COC3=C[C@@](O)(C(=O)O)C[C@@H](O)[C@@H]3O)cc2c1 | – | – | Active | – | Active | –
32 | CCCOC(=O)[C@]1(O)C=C(OCc2ccc3ccccc3c2)[C@@H](OC(=O)CCC)[C@H](OC(=O)CCC)C1 | Non-toxic | 5 (≈ 9.75 µM) | – | – | – | –
33 | O=C(O)[C@@]1(O)C[C@@H](O)[C@H](O)C(OCc2cccs2)=C1Cc1ccc2sccc2c1 | – | – | Active | 100 | Active | 59
34 | COC(=O)[C@]1(O)C=C(OCc2cc3ccc(Cl)cc3s2)[C@@H](O)[C@H](O)C1 | Non-toxic | > 160 | – | – | – | –
35 | CCOC(=O)[C@]1(O)C=C(OCc2ccc3ccccc3c2)[C@@H](O)[C@H](O)C1 | Non-toxic | 20 (≈ 55.8 µM) | – | – | – | –
36 | O=C(O)[C@]1(O)C=C(OCc2cc3ccccc3s2)[C@@H](O)[C@H](O)C1 | – | – | Active | – | Active | 28
37 | CCOC(=O)[C@]1(O)C=C(OCc2cc3ccc(Cl)cc3s2)[C@@H](O)[C@H](O)C1 | Non-toxic | 40 (≈ 100 µM) | – | – | – | –
38 | COC(=O)[C@]1(O)C=C(OCc2cc3cc(C)ccc3s2)[C@@H](O)[C@H](O)C1 | Non-toxic | > 160 | – | – | – | –
39 | CCCOC(=O)[C@]1(O)C=C(OCc2ccc3sccc3c2)[C@@H](O)[C@H](O)C1 | Non-toxic | 20 (≈ 52.8 µM) | – | – | – | –
40 | COC(=O)[C@@]1(O)C[C@@H](O)[C@H](O)C(OCc2cc3ccc(Cl)cc3s2)=C1Cc1cc2ccc(Cl)cc2s1 | Non-toxic | 80 (≈ 141 µM) | – | – | – | –

Source: ChEMBL document CHEMBL1821644, “A prodrug approach for improving antituberculosis activity of potent Mycobacterium tuberculosis type II dehydroquinase inhibitors” (J Med Chem, 2011)
